From US20240124428A1, “HETEROCYCLIC INHIBITORS OF PCSK9” (CARDIO THERAPEUTICS PTY LTD, priority 2020, published 2024) come the findings set out here.

Each structure is given as a SMILES string.

Series [1] can be described thus: Dedicated pharmacokinetic study, single oral dose. The following applies: plasma; for Cmax / Tmax / AUC(0-t): female, C57BL/6, mouse, mice; for Cmax / Tmax: PO 50 mg/kg study; for AUC(0-t): route and dose not given (PO 50 mg/kg study); for bioavailability: mouse, PO dose of 50 mg/kg, female C57BL/6 mice. The class given is in vivo, C57BL/6 mice. The protocol:
For dedicated pharmacokinetic analyses of compounds 29, 122 and 131, C57BL/6 mice (19-21 g, 10-12 weeks, female, purchased from Jihui Laboratory Animal Co. LTD) were given free access to food and water throughout the in-life phase of the study. Mice were orally dosed once with 50 mg/kg (10 mL/kg) of either compound 29, 122 and 131 with each compound formulated in 90% saline, 5% Solutol HS15 and 5% DMSO. At designated time points following dosing (t=0.083, 0.25, 0.5, 1, 2, 4, 8 and 24 h), the animals were restrained manually and ˜110 μL of blood/time point was collected into pre-cooled EDTA-K2 tubes via the facial vein. Blood samples were put on wet ice, then centrifuged at 2000 g for 5 min (4° C.) to obtain plasma within 15 min after sample collection. Plasma samples were subsequently stored at approximately −70° C. until analysis. Each sample was assayed for levels of 29, 122 and 131 by LC/MS/MS using a Triple Quadruple (6500+) system operating in a positive electrospray ionisation mode.
The mean plasma concentration-time profiles from dedicated pharmacokinetic analyses of compound 29, 122 and 131 are shown in FIG. 5A-C. Mice were orally dosed once with either 50 mg/kg of (A) compound 29, (B) compound 122 or (C) compound 131.

A short description of series [2]: Dedicated pharmacokinetic study, single oral dose. The class given is in vivo, C57BL/6 mice. The following applies: mice, route and dose not given; for half-life: C57BL/6, mouse, plasma, intravenous, 0.4 mg/kg.
A short description of series [3]: Cassette pharmacokinetic study, intravenous. The class given is in vivo, C57BL/6 mice. The following applies: mice, route not given (IV study 0.4 mg/kg); for Vd: male, C57BL/6, mouse, plasma, read-out: VSS. As to the method:
Cassette dosing is a technique primarily used in drug discovery efforts in non-clinical studies to collect pharmacokinetic data from multiple drug candidates in a single experiment.
C57BL/6 mice (21-22 g, 6-8 weeks, male, purchased from Jihui Laboratory Animal Co. LTD) were allowed access to food and water ad libitum throughout the in-life phase of the study. Mice were dosed intravenously (IV) with a cassette of 0.4 mg/kg of test compounds in 5% DMAC, 5% Solutol HS15 and 90% saline. At designated time points, the animals were restrained manually, and ˜110 μL of blood/time point was collected into pre-cooled EDTA-K2 tubes via the facial vein. Blood samples were centrifuged at 4° C. (2000 g, 5 min) to obtain plasma within 15 min after sample collection. Plasma samples were stored at approximately −70° C. until analysis. Samples were assayed for their levels of test compounds by LC/MS/MS using a Triple Quadruple (6500+) system operating in a positive electrospray ionisation mode.
The PK parameters of half-life (T1/2) and area under the curve (AUC) of the compounds were assessed following a single intravenous (IV) injection (0.4 mg/kg) in mice (male, C57BL/6).

The subject of another series is APOE*3-Leiden.CETP mice. The series is described as follows: In vivo efficacy study: compound 29 monotherapy. The following applies: for reduction of total plasma cholesterol levels compared to the vehicle control: over a period of four weeks. As to the method:
Female APOE*3-Leiden.CETP mice (˜10-14 weeks old) were obtained from the SPF breeding stock at TNO-Metabolic Health Research (Leiden).
Mice were housed in macrolon cages (maximum of 6 mice per cage) in clean-conventional animal rooms (relative humidity 50-60%, temperature ˜21° C., light cycle 7 am to […]). Mice were fed a semi-synthetic western type diet with 15% saturated fat and 0.15% (w/w) cholesterol and were provided with heat-sterilized tap water and food ad libitum.
Forty female APOE*3-Leiden.CETP mice were allowed to acclimate to these conditions for a 3 week run-in period prior to the removal of 8 low-responder mice. […] In the final week of the run-in diet, all mice received vehicle solution (5% DMSO, 5% Solutol HS15, 90% saline) twice daily by oral gavage to accustom the animals to the procedure. After matching, mice received vehicle solution only (Group 1) or compound 29 in vehicle solution (Groups 2, 3 and 4) for the remainder of the study by twice daily administration using oral gavage in a volume of 5 mL/kg body weight. On days 0, 3, 7, 14, 21 and 28 of treatment, blood samples were taken after 4 h of fasting, from which EDTA plasma was collected and used for measurement of plasma total cholesterol. Lipoprotein profiles were determined on day 0, 14 and 28 in group pooled plasma samples using an equal volume of plasma per mouse. On day 28, directly after the last blood sampling point, mice were sacrificed via CO2 asphyxiation, fasted. At sacrifice, EDTA-plasma samples were obtained via heart puncture.
EDTA plasma blood samples were obtained after 4 h fasting. Animals were placed under a red light lamp for at least 10 minutes. The tail was fixed and the mice were allowed to move freely during blood collection and were not fixed to avoid additional stress. […]
Total plasma cholesterol and triglyceride levels were determined using a […] from Roche.
Analyses were performed in samples pooled per group. Cholesterol levels were measured using a “Cholesterol CHOD-PAP” kit from Roche.

Regarding `Cc1ccc(-c2cc(CN3CCC(F)(F)[C@H](N)C3)cc(NC(=O)c3cc(-c4ccccc4)ccn3)c2)cn1` [Compound 122], in series [1], the Cmax turned out to be 10800 ng/mL, the time to peak (Tmax) is 4 h, the AUC(0-t) turned out to be 173000 ng·h/mL and the bioavailability came to 75%. In series [2], this compound had a half-life of 11.3 h. The Vd in series [3] was found to be 1.29 L/kg.
Take `Cc1cn(-c2cc(CN3CCC[C@H](N)C3)cc(NC(=O)c3cc(-c4ccccc4)ccn3)c2)cn1` [compound 29, (S)—N-(3-((3-aminopiperidin-1-yl)methyl)-5-(4-methyl-1H-imidazol-1-yl)phenyl)-4-phenylpicolinamide]: in series [1], the Cmax was 1480 ng/mL, the Tmax came out at 2 h, the AUC(0-t) was 8130 ng·h/mL and the bioavailability was found to be 40%. In series [2], the “T1/2” value is 6.29 h. Also, the “plasma PCSK9 levels” value in the series on APOE*3-Leiden.CETP mice (30 and 50 mg/kg bid oral, over four weeks) was “increase in plasma PCSK9 levels”. Besides, the “reduction of total plasma cholesterol levels compared to the vehicle control” value in the series with APOE*3-Leiden.CETP mice (oral dosing 30 mg/kg) is on record as “more than 30%”. For the same compound, the “reduction of total plasma cholesterol levels compared to the vehicle control” value with APOE*3-Leiden.CETP mice (oral dosing 50 mg/kg) was above 50%. In series [3], the “VSS” value was 14.7 L/kg.
For `Cc1cnc(C(=O)Nc2cc(CN3CCC(F)(F)[C@H](N)C3)cc(-c3ccc(C(F)(F)F)nc3)c2)cc1-c1ccccc1` [compound 131], in series [1], the highest level (Cmax) was 6740 ng/mL, the Tmax was 1 h, the AUC(0-t) was 98500 ng·h/mL and the bioavailability is 54%. Besides, in series [2], the half-life is 19 h. The Vd in series [3] came to 3.25 L/kg.
